{"source": "ChEMBL document CHEMBL1201862", "about": "“PubChem BioAssay data set” (2004)", "type_in_all_cases": "functional", "key": {"SUMO-activating enzyme": {"target": "SUMO-activating enzyme (Homo sapiens, UniProt Q9UBT2)", "sequence (Q9UBE0 whole entry)": "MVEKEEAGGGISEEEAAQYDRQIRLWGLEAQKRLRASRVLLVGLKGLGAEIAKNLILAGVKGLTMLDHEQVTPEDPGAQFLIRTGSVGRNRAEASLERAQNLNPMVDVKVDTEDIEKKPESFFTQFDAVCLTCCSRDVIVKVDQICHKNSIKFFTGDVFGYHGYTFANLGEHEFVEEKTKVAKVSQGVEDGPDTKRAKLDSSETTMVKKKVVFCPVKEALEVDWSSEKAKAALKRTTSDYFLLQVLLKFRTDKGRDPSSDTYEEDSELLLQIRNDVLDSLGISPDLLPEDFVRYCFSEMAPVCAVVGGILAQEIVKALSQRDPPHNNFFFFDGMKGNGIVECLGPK", "sequence (Q9UBT2 whole entry)": "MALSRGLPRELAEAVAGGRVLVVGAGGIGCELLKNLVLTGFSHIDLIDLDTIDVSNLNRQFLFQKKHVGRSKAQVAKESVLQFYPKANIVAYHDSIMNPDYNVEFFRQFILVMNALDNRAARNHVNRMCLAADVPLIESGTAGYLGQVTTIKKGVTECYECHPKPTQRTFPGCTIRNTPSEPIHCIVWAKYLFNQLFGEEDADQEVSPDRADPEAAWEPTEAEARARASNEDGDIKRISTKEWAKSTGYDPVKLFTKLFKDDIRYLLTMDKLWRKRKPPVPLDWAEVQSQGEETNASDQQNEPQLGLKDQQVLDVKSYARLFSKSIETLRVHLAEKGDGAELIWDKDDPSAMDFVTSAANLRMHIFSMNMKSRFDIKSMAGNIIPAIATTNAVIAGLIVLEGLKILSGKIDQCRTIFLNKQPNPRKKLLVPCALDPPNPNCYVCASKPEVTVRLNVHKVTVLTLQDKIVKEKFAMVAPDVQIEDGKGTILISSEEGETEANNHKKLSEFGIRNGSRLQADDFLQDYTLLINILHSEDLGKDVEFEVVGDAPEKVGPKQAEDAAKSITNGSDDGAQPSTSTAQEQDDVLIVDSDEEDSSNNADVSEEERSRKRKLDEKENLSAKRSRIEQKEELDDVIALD", "experiment": "blockers of UBC9-mediated SUMO conjugation – biochemical, AlphaScreen, SUMOylation inhibitor project, confirmation (AID 2018)"}, "[1]": {"target": "T1, Replicative DNA helicase DnaB (Mycobacterium tuberculosis, UniProt P9WMR3)", "T1 sequence (P9WMR3 whole entry)": "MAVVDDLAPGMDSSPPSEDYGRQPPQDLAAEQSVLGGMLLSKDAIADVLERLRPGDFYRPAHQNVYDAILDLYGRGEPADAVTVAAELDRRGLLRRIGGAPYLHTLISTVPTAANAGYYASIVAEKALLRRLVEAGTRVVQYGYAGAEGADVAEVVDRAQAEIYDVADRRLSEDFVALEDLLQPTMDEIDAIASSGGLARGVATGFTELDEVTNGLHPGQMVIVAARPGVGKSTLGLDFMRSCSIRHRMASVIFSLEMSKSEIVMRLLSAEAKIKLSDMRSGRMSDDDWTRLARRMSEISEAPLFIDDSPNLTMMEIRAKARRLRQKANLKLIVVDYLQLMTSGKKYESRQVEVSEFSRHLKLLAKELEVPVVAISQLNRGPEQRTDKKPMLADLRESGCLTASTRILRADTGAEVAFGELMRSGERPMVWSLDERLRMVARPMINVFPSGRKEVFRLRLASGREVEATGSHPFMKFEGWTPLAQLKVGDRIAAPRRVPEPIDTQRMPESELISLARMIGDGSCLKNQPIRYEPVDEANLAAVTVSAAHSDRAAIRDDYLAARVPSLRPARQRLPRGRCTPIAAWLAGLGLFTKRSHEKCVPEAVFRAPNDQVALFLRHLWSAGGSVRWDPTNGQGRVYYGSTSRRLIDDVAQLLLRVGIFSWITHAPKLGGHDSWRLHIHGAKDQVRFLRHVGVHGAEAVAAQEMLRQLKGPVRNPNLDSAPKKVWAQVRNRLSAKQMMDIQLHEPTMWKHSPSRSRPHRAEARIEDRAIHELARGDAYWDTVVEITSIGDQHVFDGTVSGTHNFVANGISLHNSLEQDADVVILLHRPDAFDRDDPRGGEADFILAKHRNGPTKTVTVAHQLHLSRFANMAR", "experiment": "DnaB intein splicing inhibitors, dose response, biochemical, cell-free fluorescence (AID 449749)"}, "[2]": {"target": "T2, Apoptotic protease-activating factor 1 (Homo sapiens, UniProt O14727)", "T2 sequence (O14727 whole entry)": "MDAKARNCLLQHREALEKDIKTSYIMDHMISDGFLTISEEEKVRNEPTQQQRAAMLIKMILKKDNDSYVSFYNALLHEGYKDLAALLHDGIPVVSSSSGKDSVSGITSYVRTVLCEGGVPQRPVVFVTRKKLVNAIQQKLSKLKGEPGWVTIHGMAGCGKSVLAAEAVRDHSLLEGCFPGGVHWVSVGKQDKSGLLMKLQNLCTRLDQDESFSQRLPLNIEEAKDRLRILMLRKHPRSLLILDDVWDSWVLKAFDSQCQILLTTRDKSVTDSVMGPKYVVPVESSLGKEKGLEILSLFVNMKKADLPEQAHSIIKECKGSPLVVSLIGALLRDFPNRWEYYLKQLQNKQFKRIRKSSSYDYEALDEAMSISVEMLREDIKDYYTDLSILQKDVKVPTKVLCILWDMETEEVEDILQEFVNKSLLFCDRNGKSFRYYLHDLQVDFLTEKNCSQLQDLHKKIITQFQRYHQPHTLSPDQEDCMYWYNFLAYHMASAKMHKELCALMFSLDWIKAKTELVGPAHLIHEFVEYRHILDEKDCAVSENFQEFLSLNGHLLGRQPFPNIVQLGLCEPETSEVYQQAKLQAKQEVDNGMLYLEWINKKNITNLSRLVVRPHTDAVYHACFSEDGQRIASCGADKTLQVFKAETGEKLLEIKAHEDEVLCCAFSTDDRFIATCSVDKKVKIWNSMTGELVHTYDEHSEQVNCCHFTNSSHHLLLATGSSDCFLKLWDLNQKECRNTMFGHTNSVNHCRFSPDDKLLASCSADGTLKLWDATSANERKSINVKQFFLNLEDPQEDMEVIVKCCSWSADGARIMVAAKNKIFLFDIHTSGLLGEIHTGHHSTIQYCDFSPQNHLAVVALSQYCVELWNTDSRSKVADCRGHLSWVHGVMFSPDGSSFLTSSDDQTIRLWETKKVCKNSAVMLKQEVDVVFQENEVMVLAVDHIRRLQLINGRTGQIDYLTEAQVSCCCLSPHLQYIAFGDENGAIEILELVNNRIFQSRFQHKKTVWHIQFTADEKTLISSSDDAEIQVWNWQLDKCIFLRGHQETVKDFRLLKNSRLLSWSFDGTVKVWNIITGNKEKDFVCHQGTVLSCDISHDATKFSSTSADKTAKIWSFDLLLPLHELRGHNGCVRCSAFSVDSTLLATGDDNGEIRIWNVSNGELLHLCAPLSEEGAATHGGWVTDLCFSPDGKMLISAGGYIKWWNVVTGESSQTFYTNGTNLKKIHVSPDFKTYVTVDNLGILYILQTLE"}, "Protein RecA": {"target": "T3, Protein RecA (Mycobacterium tuberculosis, UniProt P9WHJ3)", "T3 sequence (P9WHJ3 whole entry)": "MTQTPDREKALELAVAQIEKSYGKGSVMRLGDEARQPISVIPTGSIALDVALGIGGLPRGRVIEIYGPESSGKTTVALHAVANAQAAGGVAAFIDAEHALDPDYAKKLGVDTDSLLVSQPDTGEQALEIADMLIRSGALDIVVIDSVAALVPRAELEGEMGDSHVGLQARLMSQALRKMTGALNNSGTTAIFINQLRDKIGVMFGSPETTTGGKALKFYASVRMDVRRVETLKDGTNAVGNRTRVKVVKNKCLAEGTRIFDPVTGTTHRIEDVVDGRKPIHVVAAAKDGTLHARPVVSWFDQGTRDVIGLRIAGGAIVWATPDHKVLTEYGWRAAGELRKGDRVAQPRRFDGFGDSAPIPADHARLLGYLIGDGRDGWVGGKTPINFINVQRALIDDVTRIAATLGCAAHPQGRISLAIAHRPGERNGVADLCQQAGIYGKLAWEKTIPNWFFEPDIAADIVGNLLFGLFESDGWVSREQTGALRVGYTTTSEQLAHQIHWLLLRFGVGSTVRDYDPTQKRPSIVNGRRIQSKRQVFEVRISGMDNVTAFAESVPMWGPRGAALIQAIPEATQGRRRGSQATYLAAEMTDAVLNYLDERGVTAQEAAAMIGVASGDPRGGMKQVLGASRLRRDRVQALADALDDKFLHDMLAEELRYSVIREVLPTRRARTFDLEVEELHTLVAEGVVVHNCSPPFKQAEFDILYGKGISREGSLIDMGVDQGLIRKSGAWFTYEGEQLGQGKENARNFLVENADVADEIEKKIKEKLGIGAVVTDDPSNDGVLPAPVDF", "experiment": "Fluorescence Cell-Free Homogeneous Dose Retest to Identify Inhibitors of RecA-Intein Splicing Activity. [Related pubchem assays (depositor defined):AID2097, AID2223, AID489010, AID492950]"}}, "note": "Calls of active or inactive are those of the source.", "data": [{"compound": "Nc1c(N2CCCC2)cc(Cl)c2nonc12", "values": [{"measurement": "IC50", "setting": "SUMO-activating enzyme", "result": "2.16 µM (active)"}, {"measurement": "AC50", "setting": "[1]", "result": "8.9 µM (active)"}, {"measurement": "IC50", "setting": "[2]", "result": "11 µM (active)"}, {"measurement": "EC50", "setting": "Protein RecA", "result": "1.65 µM (active)"}]}, {"compound": "O=C(NNc1cc(N2CCOCC2)nc(N2CCOCC2)n1)c1ccc([N+](=O)[O-])cc1", "values": [{"measurement": "IC50", "setting": "SUMO-activating enzyme", "result": "6.57 µM (active)"}, {"measurement": "IC50", "setting": "[2]", "result": "13.6 µM (active)"}]}, {"compound": "Oc1ccc(/N=C/c2ccc(OCc3ccccc3)cc2)cc1", "values": [{"measurement": "AC50", "setting": "[1]", "result": "> 380 µM (inactive)"}, {"measurement": "EC50", "setting": "Protein RecA", "result": "> 380 µM (inactive)"}]}]}
